Experimental data as given in US10934274B2, “Quinoline derivatives as TAM RTK inhibitors” (Qurient Co., Ltd., priority 2015, dated 2021).

Legend:
Mer = target: T1, Mer (Homo sapiens, UniProt Q12866); assay: LanthaScreen Eu kinase binding assay, Mer; conditions: Tracer 236
T1 construct: purchased Life Technologies
T1 sequence (Q12866 21-999): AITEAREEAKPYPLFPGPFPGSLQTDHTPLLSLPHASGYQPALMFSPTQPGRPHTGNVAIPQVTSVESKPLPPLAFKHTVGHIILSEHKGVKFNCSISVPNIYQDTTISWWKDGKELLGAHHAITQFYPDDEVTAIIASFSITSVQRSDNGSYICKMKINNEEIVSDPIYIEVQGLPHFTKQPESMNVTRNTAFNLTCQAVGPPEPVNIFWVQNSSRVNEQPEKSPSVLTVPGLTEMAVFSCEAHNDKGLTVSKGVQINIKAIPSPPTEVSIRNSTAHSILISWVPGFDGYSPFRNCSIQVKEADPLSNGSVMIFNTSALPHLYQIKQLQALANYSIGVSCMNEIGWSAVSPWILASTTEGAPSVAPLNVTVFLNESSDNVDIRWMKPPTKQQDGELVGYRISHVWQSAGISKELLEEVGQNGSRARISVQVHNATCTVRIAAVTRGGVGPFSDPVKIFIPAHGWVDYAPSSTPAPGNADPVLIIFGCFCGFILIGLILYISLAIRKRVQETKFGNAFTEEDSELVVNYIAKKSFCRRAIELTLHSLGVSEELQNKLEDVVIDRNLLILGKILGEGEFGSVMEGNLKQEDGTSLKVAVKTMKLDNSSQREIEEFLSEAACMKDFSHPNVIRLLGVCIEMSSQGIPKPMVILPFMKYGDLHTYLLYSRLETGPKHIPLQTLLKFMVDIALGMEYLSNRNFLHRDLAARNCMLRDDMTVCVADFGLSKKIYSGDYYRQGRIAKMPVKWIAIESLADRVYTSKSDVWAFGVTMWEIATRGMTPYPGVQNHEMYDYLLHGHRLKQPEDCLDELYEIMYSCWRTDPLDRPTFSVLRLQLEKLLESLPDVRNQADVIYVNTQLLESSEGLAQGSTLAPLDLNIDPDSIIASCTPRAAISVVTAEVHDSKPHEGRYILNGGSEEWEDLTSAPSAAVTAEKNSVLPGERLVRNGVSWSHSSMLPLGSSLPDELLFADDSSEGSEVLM

Met = target: T2, Met (Homo sapiens, UniProt P08581); assay: LanthaScreen Eu kinase binding assay, Met; conditions: Tracer 236, read-out: cMet kinase binding activity (Kd)
T2 construct: purchased Life Technologies
T2 sequence (P08581 25-1390): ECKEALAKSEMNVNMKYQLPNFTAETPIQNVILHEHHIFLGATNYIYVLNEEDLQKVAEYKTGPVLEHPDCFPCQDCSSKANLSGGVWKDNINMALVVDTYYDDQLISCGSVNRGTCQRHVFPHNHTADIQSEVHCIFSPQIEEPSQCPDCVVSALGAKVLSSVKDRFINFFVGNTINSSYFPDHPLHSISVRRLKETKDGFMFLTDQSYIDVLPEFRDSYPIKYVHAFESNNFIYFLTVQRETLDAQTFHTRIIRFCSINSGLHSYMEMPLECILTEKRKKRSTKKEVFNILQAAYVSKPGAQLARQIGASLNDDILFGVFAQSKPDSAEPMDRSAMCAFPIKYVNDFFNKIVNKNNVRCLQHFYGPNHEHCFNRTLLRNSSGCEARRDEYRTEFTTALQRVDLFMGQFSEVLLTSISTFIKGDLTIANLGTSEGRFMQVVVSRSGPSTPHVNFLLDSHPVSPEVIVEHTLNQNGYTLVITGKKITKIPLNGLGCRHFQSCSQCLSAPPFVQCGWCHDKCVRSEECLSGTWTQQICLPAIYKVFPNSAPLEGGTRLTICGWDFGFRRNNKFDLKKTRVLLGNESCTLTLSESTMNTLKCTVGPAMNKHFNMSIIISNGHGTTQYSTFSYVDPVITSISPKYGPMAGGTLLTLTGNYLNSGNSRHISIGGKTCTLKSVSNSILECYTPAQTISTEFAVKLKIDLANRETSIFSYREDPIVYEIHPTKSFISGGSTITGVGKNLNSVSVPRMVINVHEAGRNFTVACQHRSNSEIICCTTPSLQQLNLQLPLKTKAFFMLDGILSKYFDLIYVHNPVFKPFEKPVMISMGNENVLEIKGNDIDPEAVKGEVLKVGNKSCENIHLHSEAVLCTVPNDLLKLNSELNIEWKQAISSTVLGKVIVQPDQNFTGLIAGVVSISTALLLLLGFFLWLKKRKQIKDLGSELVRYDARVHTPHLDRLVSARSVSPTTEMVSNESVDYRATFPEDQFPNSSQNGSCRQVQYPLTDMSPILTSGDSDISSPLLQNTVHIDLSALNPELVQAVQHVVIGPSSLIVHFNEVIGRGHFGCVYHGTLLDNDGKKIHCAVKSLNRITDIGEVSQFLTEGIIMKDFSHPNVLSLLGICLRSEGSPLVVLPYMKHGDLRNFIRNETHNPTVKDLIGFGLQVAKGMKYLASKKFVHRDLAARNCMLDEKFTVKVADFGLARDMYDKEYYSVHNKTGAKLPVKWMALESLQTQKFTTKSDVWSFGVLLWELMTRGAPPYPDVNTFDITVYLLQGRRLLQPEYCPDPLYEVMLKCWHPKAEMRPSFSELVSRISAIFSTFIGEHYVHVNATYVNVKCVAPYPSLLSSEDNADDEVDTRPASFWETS

Axl = target: T3, Axl (Homo sapiens, UniProt P30530); assay: LanthaScreen Eu kinase binding assay, Axl; conditions: Tracer 236
T3 construct: purchased Life Technologies
T3 sequence (P30530 26-894): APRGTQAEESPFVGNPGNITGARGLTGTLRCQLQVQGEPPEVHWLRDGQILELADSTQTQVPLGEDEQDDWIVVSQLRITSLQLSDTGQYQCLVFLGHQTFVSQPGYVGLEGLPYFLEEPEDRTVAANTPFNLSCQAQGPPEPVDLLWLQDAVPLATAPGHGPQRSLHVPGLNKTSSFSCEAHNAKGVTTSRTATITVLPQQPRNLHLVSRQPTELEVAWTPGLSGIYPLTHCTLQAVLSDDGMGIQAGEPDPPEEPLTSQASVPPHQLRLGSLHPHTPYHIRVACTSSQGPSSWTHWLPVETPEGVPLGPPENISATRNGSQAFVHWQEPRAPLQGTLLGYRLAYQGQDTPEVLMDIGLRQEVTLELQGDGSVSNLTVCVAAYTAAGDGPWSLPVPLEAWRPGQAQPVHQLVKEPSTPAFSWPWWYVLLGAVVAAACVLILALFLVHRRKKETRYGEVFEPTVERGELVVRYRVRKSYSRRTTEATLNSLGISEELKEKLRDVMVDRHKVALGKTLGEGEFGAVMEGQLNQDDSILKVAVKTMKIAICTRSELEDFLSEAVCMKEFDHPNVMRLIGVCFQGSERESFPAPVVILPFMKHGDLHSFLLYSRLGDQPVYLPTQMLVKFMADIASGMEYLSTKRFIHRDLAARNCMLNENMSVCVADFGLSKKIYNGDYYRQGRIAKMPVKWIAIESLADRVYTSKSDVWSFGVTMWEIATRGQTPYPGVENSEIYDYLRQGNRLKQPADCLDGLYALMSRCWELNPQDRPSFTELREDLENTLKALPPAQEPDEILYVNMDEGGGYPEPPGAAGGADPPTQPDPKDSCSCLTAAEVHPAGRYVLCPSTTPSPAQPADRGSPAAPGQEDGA

TYRO3 = target: T4, TYRO3 (Homo sapiens, UniProt Q06418); assay: LanthaScreen Eu kinase binding assay, TYRO3; conditions: Tracer 236
T4 construct: purchased Life Technologies
T4 sequence (Q06418 41-890): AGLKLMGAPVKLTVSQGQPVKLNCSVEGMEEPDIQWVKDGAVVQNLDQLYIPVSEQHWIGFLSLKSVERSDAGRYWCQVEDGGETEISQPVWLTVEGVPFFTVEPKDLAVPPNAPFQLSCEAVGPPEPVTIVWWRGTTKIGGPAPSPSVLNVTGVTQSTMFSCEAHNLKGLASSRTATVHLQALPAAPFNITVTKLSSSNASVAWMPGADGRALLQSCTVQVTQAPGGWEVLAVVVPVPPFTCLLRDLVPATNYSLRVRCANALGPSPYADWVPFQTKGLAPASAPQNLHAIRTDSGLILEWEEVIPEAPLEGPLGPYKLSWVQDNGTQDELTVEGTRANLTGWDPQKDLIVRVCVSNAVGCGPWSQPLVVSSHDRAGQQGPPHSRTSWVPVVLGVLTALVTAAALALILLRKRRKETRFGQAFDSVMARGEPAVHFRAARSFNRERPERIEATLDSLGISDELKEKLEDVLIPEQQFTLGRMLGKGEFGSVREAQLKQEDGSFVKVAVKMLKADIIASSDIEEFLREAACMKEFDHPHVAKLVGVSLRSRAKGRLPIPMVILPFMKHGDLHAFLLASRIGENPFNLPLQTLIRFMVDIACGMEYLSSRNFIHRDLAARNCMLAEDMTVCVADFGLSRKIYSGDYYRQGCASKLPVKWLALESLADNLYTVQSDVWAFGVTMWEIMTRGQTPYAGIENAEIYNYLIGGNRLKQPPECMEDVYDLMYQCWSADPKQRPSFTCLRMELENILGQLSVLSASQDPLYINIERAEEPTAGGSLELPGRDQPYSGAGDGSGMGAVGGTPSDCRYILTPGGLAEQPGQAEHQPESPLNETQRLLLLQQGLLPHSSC

SMILES	Kd (Mer) [nM]	Kd (Met) [nM]	Kd (Axl) [nM]	Kd (TYRO3) [nM]
CCOc1cnn(Cc2cnccn2)c1C(=O)Nc1ccc(Oc2ccnc3cc(OC)c(OC)cc23)cc1F [Compound 217]	100 to 1000	100 to 1000	≥ 1000	≥ 1000
CCOc1cn(CC2CCNCC2)nc1C(=O)Nc1ccc(Oc2ccnc3cc(OC)c(OC)cc23)cc1F [Compound 218]	100 to 1000	100 to 1000	100 to 1000	100 to 1000
CCOc1cn(CC2CCN(C)CC2)nc1C(=O)Nc1ccc(Oc2ccnc3cc(OC)c(OC)cc23)cc1F [Compound 219]	100 to 1000	100 to 1000	100 to 1000	100 to 1000
CCOc1cnn(CC2CCN(C)CC2)c1C(=O)Nc1ccc(Oc2ccnc3cc(OC)c(OC)cc23)cc1F [Compound 220]	≥ 1000	≥ 1000	≥ 1000	≥ 1000
CCOc1cn(-c2cnccc2C)nc1C(=O)NC1CC2(C1)CC(Oc1ccnc3cc(OC)c(OC)cc13)C2 (stereo not shown) [Compound 221]	≥ 1000	≥ 1000	≥ 1000	≥ 1000
CCOc1cn(C2CCN(C)CC2)nc1C(=O)Nc1ccc(Oc2ccnc3cc(OC)c(OC)cc23)cc1F [Compound 222]	100 to 1000	≥ 1000	100 to 1000	≥ 1000
CCOc1cnn(C2CCN(C)CC2)c1C(=O)Nc1ccc(Oc2ccnc3cc(OC)c(OC)cc23)cc1F [Compound 223]	100 to 1000	≥ 1000	≥ 1000	≥ 1000
CCOc1cnn(Cc2cnccc2C)c1C(=O)Nc1ccc(Oc2ccnc3cc(OC)c(OC)cc23)cc1F [Compound 228]	100 to 1000	100 to 1000	≥ 1000	≥ 1000
CCOc1cnn(-c2cnc(N)nc2)c1C(=O)Nc1ccc(Oc2ccnc3cc(OC(C)C)c(OC)cc23)cc1F [Compound 232]	100 to 1000	≥ 1000	100 to 1000	≥ 1000

Continued, values first:

Kd (Mer) [nM]	Kd (Met) [nM]	Kd (Axl) [nM]	Kd (TYRO3) [nM]	SMILES
< 100	< 100	< 100	< 100	CCOc1cn(-c2cnccc2C(=O)OC)nc1C(=O)Nc1ccc(Oc2ccnc3cc(OC)c(OC)cc23)cn1 [Compound 172]
< 100	< 100	< 100	< 100	CCOc1cn(-c2cnccc2OC)nc1C(=O)Nc1ccc(Oc2ccnc3cc(OC)c(OC)cc23)cn1 [Compound 173]
< 100	< 100	< 100	< 100	CCOc1cn(-c2cncnc2OC)nc1C(=O)Nc1ccc(Oc2ccnc3cc(OC)c(OC)cc23)cn1 [Compound 175]
< 100	< 100	< 100	100 to 1000	CCOc1cn(-c2cnccc2CC(=O)OC)nc1C(=O)Nc1ccc(Oc2ccnc3cc(OC)c(OC)cc23)cn1 [Compound 176]
< 100	< 100	< 100	< 100	CCOc1cn(-c2nccnc2F)nc1C(=O)Nc1ccc(Oc2ccnc3cc(OC)c(OC)cc23)cn1 [Compound 178]
100 to 1000	≥ 1000	100 to 1000	≥ 1000	CCOc1cn(-c2cncnc2N2CCCC2)nc1C(=O)Nc1ccc(Oc2ccnc3cc(OC)c(OC)cc23)cn1 [Compound 180]
100 to 1000	100 to 1000	≥ 1000	≥ 1000	CCOc1cn(-c2cnccn2)nc1C(=O)NC1CC(Oc2ccnc3cc(OC)c(OC)cc23)C1 (stereo not shown) [Compound 204]
100 to 1000	100 to 1000	100 to 1000	100 to 1000	CCOc1cn(CC2CCCN(C)C2)nc1C(=O)Nc1ccc(Oc2ccnc3cc(OC)c(OC)cc23)cc1F (stereo not shown) [Compound 214]
100 to 1000	100 to 1000	100 to 1000	≥ 1000	CCOc1cnn(CC2CCCN(C)C2)c1C(=O)Nc1ccc(Oc2ccnc3cc(OC)c(OC)cc23)cc1F (stereo not shown) [Compound 216]
< 100	100 to 1000	< 100	< 100	CCC(C)Oc1cc2nccc(Oc3ccc(NC(=O)c4nn(-c5cnc(N)nc5)cc4OCC(F)(F)F)nc3)c2cc1OC (stereo not shown) [Compound 235]
